Calls of active or inactive are those of the source. The calls are words filed in the database; no cut-off is given here.
How the values were obtained:
[1] = test system: Trypanosoma cruzi; assay: Antitrypanosomal activity against Trypanosoma cruzi Tulahuen C4 strain trypomastigotes assessed as growth inhibition at 20 uM incubated for 48 hrs by resazurin dye based assay; format: functional; parameters: scale not given: the % may be the effect or the level left
[2] = Selectivity index, ratio of IC50 for african green monkey Vero cells to IC50 for static antileishmanial activity against Leishmania major NIH-S (MHOM/SN/74/Seidman) amastigote; format: toxicity, cell-based; conditions: read-out: Ratio IC50
[3] = Selectivity index, ratio of IC50 for african green monkey Vero cells to IC50 for leishmanicidal activity against Leishmania donovani 9515 (MHOM/IN/95/9151) amastigote; format: toxicity, cell-based; conditions: read-out: Ratio IC50
[4] = test system: Trypanosoma congolense; assay: Trypanocidal activity against Trypanosoma congolense IL3000 incubated for 72 hrs by CellTiter-Glo reagent based […] analysis; format: functional, organism-based; conditions: IL3000, 72 h
[5] = test system: Leishmania major; assay: Antileishmanial activity against Leishmania major NIH-S (MHOM/SN/74/Seidman) amastigote infected in THP-1 cells assessed as inhibition of parasite growth incubated for 72 hrs by resazurin dye based plate reader assay; format: functional, organism-based; conditions: THP-1, 72 h
[6] = test system: Leishmania major; assay: Leishmanicidal activity against Leishmania major NIH-S (MHOM/SN/74/Seidman) amastigote incubated for 48 hrs by resazurin dye based plate reader assay; format: functional, organism-based
[7] = Selectivity index, ratio of IC50 for human THP-1 cells to IC50 for leishmanicidal activity against Leishmania major NIH-S (MHOM/SN/74/Seidman); format: toxicity, cell-based; conditions: read-out: Ratio IC50
[8] = test system: Leishmania major; assay: Antileishmanial activity against Leishmania major IR-173 (MHO-M/IR/-173) promastigote incubated for 48 hrs by resazurin dye based plate reader assay; format: functional, organism-based
[9] = Selectivity index, ratio of IC50 for african green monkey Vero cells to IC50 for Leishmania donovani 9515 (MHOM/IN/95/9151) promastigote; format: toxicity, cell-based; conditions: read-out: Ratio IC50
[10] = Cytotoxicity against green monkey Vero cells incubated for 48 hrs by resazurin dye based assay; format: toxicity, cell-based; conditions: African green monkey (Chlorocebus sabaeus)
[11] = Selectivity index, ratio of IC50 for african green monkey Vero cells to IC50 for Trypanosoma cruzi Tulahuen C4 strain; format: toxicity, cell-based; conditions: read-out: Ratio IC50
[12] = Selectivity index, ratio of CC50 for MDBK to IC50 for Trypanosoma congolense IL3000; format: toxicity, cell-based; conditions: cattle, MDBK cells; read-out: Ratio CC50/IC50
[13] = test system: Trypanosoma congolense; assay: Antitrypanosomal activity against Trypanosoma congolense IL3000 infected in BALB/c mouse assessed as increase in animal survival time at 100 mg/kg, po or 10 mg/kg, ip administered for 7 consecutive days starting from 6 days post infection (reference value: 9 day); format: functional; conditions: time 7 day
[14] = Selectivity index, ratio of CC50 for MDBK to IC50 for Trypanosoma equiperdum IVM-t1; format: toxicity, cell-based; conditions: cattle, MDBK cells; read-out: Ratio CC50/IC50
[15] = Selectivity index, ratio of IC50 for human THP-1 cells to IC50 for static antileishmanial activity against Leishmania donovani 9515 (MHOM/IN/95/9151) amastigote; format: toxicity, cell-based; conditions: read-out: Ratio IC50
[16] = Selectivity index, ratio of IC50 for african green monkey Vero cells to IC50 for leishmanicidal activity against Leishmania major NIH-S (MHOM/SN/74/Seidman) amastigote; format: toxicity, cell-based; conditions: read-out: Ratio IC50
[17] = Cytotoxicity against MDBK cells incubated for 72 hrs by CCK8 assay; format: toxicity, cell-based, Bos taurus; conditions: cattle, MDBK cells
[18] = test system: Trypanosoma brucei brucei; assay: Trypanocidal activity against Trypanosoma brucei brucei GUTat3.1 incubated for 72 hrs by CellTiter-Glo reagent based […] analysis; format: functional, organism-based; conditions: GUTat3.1, 72 h
[19] = Selectivity index, ratio of IC50 for human THP-1 cells to IC50 for Trypanosoma cruzi Tulahuen C4 strain; format: toxicity, cell-based; conditions: read-out: Ratio IC50
[20] = Selectivity index, ratio of CC50 for MDBK to IC50 for Trypanosoma brucei brucei GUTat3.1; format: toxicity, cell-based; conditions: cattle, MDBK cells; read-out: Ratio CC50/IC50
[21] = Selectivity index, ratio of IC50 for human THP-1 cells to IC50 for leishmanicidal activity against Leishmania donovani 9515 (MHOM/IN/95/9151) amastigote; format: toxicity, cell-based; conditions: read-out: Ratio IC50
[22] = Cytotoxicity against human […]-differentiated THP-1 cells incubated for 72 hrs by resazurin dye based assay; format: toxicity, cell-based
[23] = test system: Trypanosoma evansi; assay: Trypanocidal activity against Trypanosoma evansi Tansui incubated for 72 hrs by CellTiter-Glo reagent based […] analysis; format: functional, organism-based
[24] = Selectivity index, ratio of CC50 for MDBK to IC50 for Trypanosoma brucei rhodesiense IL1501; format: toxicity, cell-based; conditions: cattle, MDBK cells; read-out: Ratio CC50/IC50
[25] = Selectivity index, ratio of CC50 for MDBK to IC50 for Trypanosoma brucei gambiense IL1922; format: toxicity, cell-based; conditions: cattle, MDBK cells; read-out: Ratio CC50/IC50
[26] = Selectivity index, ratio of IC50 for african green monkey Vero cells to IC50 for static antileishmanial activity against Leishmania donovani 9515 (MHOM/IN/95/9151) amastigote; format: toxicity, cell-based; conditions: read-out: Ratio IC50
[27] = Selectivity index, ratio of IC50 for human THP-1 cells to IC50 for Leishmania donovani 9515 (MHOM/IN/95/9151) promastigote; format: toxicity, cell-based; conditions: read-out: Ratio IC50
[28] = test system: Leishmania donovani; assay: Antileishmanial activity against Leishmania donovani 9515 (MHOM/IN/95/9151) promastigote incubated for 48 hrs by resazurin dye based plate reader assay; format: functional, organism-based
[29] = Selectivity index, ratio of IC50 for african green monkey Vero cells to IC50 for Leishmania major IR-173 (MHO-M/IR/-173) promastigote; format: toxicity, cell-based; conditions: read-out: Ratio IC50
[30] = test system: Trypanosoma cruzi; assay: Antitrypanosomal activity against Trypanosoma cruzi Tulahuen C4 strain amastigotes infected in Vero cells incubated for 72 hrs by beta-galactosidase based assay; format: functional, organism-based
[31] = Selectivity index, ratio of IC50 for human THP-1 cells to IC50 for Leishmania major IR-173 (MHO-M/IR/-173) promastigote; format: toxicity, cell-based; conditions: read-out: Ratio IC50
[32] = Selectivity index, ratio of CC50 for MDBK to IC50 for Trypanosoma evansi Tansui; format: toxicity, cell-based; conditions: cattle, MDBK cells; read-out: Ratio CC50/IC50
[33] = test system: Leishmania donovani; assay: Antileishmanial activity against Leishmania donovani 9515 (MHOM/IN/95/9151) amastigote infected in THP-1 cells assessed as inhibition of parasite growth incubated for 72 hrs by resazurin dye based plate reader assay; format: functional, organism-based; conditions: THP-1, 72 h
[34] = test system: Trypanosoma brucei rhodesiense; assay: Trypanocidal activity against Trypanosoma brucei rhodesiense IL1501 incubated for 72 hrs by CellTiter-Glo reagent based […] analysis; format: functional, organism-based; conditions: IL1501, 72 h
[35] = test system: Trypanosoma brucei gambiense; assay: Trypanocidal activity against Trypanosoma brucei gambiense IL1922 incubated for 72 hrs by CellTiter-Glo reagent based […] analysis; format: functional, organism-based; conditions: IL1922, 72 h
[36] = test system: Trypanosoma equiperdum; assay: Trypanocidal activity against Trypanosoma equiperdum IVM-t1 incubated for 72 hrs by CellTiter-Glo reagent based […] analysis; format: functional, organism-based; conditions: IVM-t1, 72 h
[37] = test system: Trypanosoma congolense; assay: Antitrypanosomal activity against Trypanosoma congolense IL3000 infected in BALB/c mouse assessed as animal survival at 100 mg/kg, po or 10 mg/kg, ip administered for 7 consecutive days starting from 6 days post infection and measured after 13 days post infection; format: functional, organism-based; conditions: time 7.0 day
[38] = Selectivity index, ratio of IC50 for human THP-1 cells to IC50 for static antileishmanial activity against Leishmania major NIH-S (MHOM/SN/74/Seidman) amastigote; format: toxicity, cell-based; conditions: read-out: Ratio IC50
[39] = test system: Leishmania donovani; assay: Leishmanicidal activity against Leishmania donovani 9515 (MHOM/IN/95/9151) amastigote infected in THP-1 cells incubated for 72 hrs by resazurin dye based plate reader assay; format: functional, organism-based; conditions: THP-1, 72 h
[40] = Selectivity index, ratio of IC50 for african green monkey Vero cells to IC50 for Leishmania donovani; format: toxicity, cell-based; conditions: read-out: Ratio IC50

C#CCn1cc(/C=N\N=C\c2ccc([N+](=O)[O-])o2)c2cc([N+](=O)[O-])ccc21
Activity [1]: 22%
selectivity ratio [2]: 7
selectivity ratio [3]: 2
IC50 [4]: 0.08 µM
IC50 [5]: 1.09 µM
IC50 [6]: 1.41 µM
selectivity ratio [7]: 47
IC50 [8]: 0.08 µM
selectivity ratio [9]: 40
IC50 at 48 h [10]: 8.07 µM
selectivity ratio [11]: 6
selectivity ratio [12]: > 3280
Survival [13]: 9.5 days
selectivity ratio [14]: > 146
selectivity ratio [15]: 20
selectivity ratio [16]: 6
CC50 at 72 h [17]: > 274 µM
IC50 [18]: 1.24 µM
selectivity ratio [19]: 55
selectivity ratio [20]: > 222
selectivity ratio [21]: 20
IC50 at 72 h [22]: 66.3 µM
IC50 [23]: 1.96 µM
selectivity ratio [24]: > 364
selectivity ratio [25]: > 405
selectivity ratio [26]: 2
selectivity ratio [27]: 332
IC50 [28]: 0.2 µM
selectivity ratio [29]: 106
IC50 [30]: 1.21 µM
selectivity ratio [31]: 829
selectivity ratio [32]: > 140
IC50 [33]: 3.27 µM
IC50 [34]: 0.75 µM
IC50 [35]: 0.68 µM
IC50 [36]: 1.88 µM
Activity [37]: inactive
selectivity ratio [38]: 60
IC50 [39]: 3.29 µM

O=Cc1ccc([N+](=O)[O-])o1
selectivity ratio [40]: 2

C#CCn1cc(/C=N\N=C\c2ccc([N+](=O)[O-])s2)c2cc([N+](=O)[O-])ccc21
Activity [1]: 59%
selectivity ratio [2]: 142
selectivity ratio [3]: 15
IC50 [4]: 0.09 µM
IC50 [5]: 0.36 µM
IC50 [6]: 1.74 µM
selectivity ratio [7]: 58
IC50 [8]: > 10 µM
selectivity ratio [9]: 26
IC50 at 48 h [10]: 51.1 µM
selectivity ratio [11]: 62
selectivity ratio [12]: > 2950
Survival [13]: 10.5 days
selectivity ratio [14]: > 780
selectivity ratio [15]: 42
selectivity ratio [16]: 25
CC50 at 72 h [17]: > 263 µM
IC50 [18]: 0.33 µM
selectivity ratio [19]: 121
selectivity ratio [20]: > 790
selectivity ratio [21]: > 28
IC50 at 72 h [22]: > 100 µM
IC50 [23]: 0.3 µM
selectivity ratio [24]: > 753
selectivity ratio [25]: > 1070
selectivity ratio [26]: 22
selectivity ratio [27]: 51
IC50 [28]: 1.95 µM
IC50 [30]: 0.82 µM
selectivity ratio [32]: > 864
IC50 [33]: 2.34 µM
IC50 [34]: 0.35 µM
IC50 [35]: 0.25 µM
IC50 [36]: 0.34 µM
Activity [37]: inactive
selectivity ratio [38]: 278
IC50 [39]: 3.51 µM

O=[N+]([O-])c1ccc(/C=N/N=C/c2ccc(OCc3ccccc3)cc2)o1
selectivity ratio [40]: 400
